For data set [1] the following is noted: rat, plasma.
Protocol: (§2) Plasma was spiked resulting in concentrations of 40 μg/ml and stored at 37° C. At time points 0, 15, 30, 45, 60, 120, 180, 240 and 300 min samples of 20 μl were taken. The plasma was immediately mixed for precipitation with the two-fold volume of acetonitrile containing 0.15% (w/v) n-nonyl-β-D-glucopyranoside. Following centrifugation the supernatants were mixed with the two-fold volume of 0.1% (v/v) trifluroacetic acid. Twenty μl of these solutions were analyzed by LC-MS. Chromatography was performed using a gradient with the following eluents: eluent A: water containing 0.06% trifluroacetic acid (v/v), eluent B: acetonitrile/water 80:20 (v/v; with 0.05% trifluoroacetic acid; v/v). A C18 precolumn was used in combination with a C18 separation column (300 Å, 5 μm, 150×1 mm inner diameter) at a flow rate of 30 μl/min. HPLC eluates were ionized by the electrospray technique of a LCQ classic mass spectrometer. Areas of the detected peaks of the peptides of the present invention were measured and used for quantification by external calibration. The calibration curve was linear over a range from 0.5 μg/ml to 250 μg/ml plasma. Half life—defined as the period for a concentration decrease to 50% of the initial concentration—was calculated from the slope of an extrapolated curve plotting the relative peptide concentration at a given time point (logarithm scale) against the incubation time. These experiments allowed the quantitative analysis of peptide concentration in plasma.
For data set [2] the following is noted: human, plasma.
Protocol: as §2
For data set [3] the following is noted: cynomolgus monkey, plasma.
Protocol: as §2
In another data set the test system is X4-tropic HIV-1 NL4-3. The note with it: read-out: IC50 NL4-3; P4-CCR5 cells, HIV-1 NL4-3, peptide 2 h before infection, readout three days after infection. In outline:
(§1)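 P4-CCR5 cells (CD4, CCR5, CXCR4, HIV-1 promoter-driven β-galactosidase) pretreated 2 h with peptide, then infected with virus containing 1 ng p24 antigen and incubated overnight. Cells washed and cultured without peptide; three days post-infection infectivity read by chemiluminescent β-galactosidase assay, in quintuplicate.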

The test system of the next data set is HIV-1 NL4-3 DTV. The note with it: read-out: IC50 DTV, P4-CCR5 cells, peptide 2 h before infection, readout three days after infection. In outline: as §1
The conditions of data set [4]: dog, plasma.
Protocol: as §2

The values below come from US7655629B2, “Peptides and their use for the treatment of HIV infections” (priority 2002, dated 2010).

Each structure is given as a SMILES string. Like-named read-outs stand apart in the source and are kept apart here. Positions of bridges follow the written chain, without caps; N, C: chain ends. Non-standard residues stand in square brackets, D forms with d. Residues, ends and D or L forms follow the SMILES beside them. Tic = O=C(O)[C@@H]1Cc2ccccc2CN1; dTic = O=C(O)[C@H]1Cc2ccccc2CN1

For the molecule `CC[C@H](C)[C@H](NC(=O)[C@H](C)NC(=O)[C@H](CCC(=O)O)NC(=O)[C@@H](N)CC(C)C)C(=O)N1CCC[C@H]1C(=O)N[C@H]1CSSC[C@@H](C(=O)N[C@@H](Cc2ccccc2)C(=O)N[C@@H](CC(C)C)C(=O)N[C@@H](Cc2ccccc2)C(=O)NCC(=O)N[C@@H](CCCCN)C(=O)N2CCC[C@H]2C(=O)N[C@@H](Cc2ccccc2)C(=O)N[C@H](C(=O)N[C@@H](Cc2ccccc2)C(=O)O)C(C)C)NC(=O)[C@@H]2CCCN2C(=O)[C@@H]2CCCN2C(=O)[C@H]([C@@H](C)CC)NC(=O)[C@H](CO)NC1=O` [VIR-345] (H-LEAIPCSIPPCFLFGKPFVF-OH; disulfide 6-11), the half-life (in general, the time needed for the level to fall by half in the phase considered) in data set [1] is 0.1 h; in data set [2] it was 5.6 h; in data set [3], 5.1 h; in data set [4], 10.7 h. Besides, the IC50 (usually the concentration that gives 50% inhibition) was 298 nM in the data set with X4-tropic HIV-1 NL4-3 and 376 nM in the data set with HIV-1 NL4-3 DTV.
For the molecule `CC[C@H](C)[C@H](NC(=O)[C@H](C)NC(=O)[C@H](CCC(=O)O)NC(=O)[C@@H](N)CC(C)C)C(=O)N1CCC[C@H]1C(=O)N[C@H]1CSSC[C@@H](C(=O)N[C@H](C(=O)NCC(=O)N[C@@H](Cc2ccccc2)C(=O)NCC(=O)N[C@@H](CCCCN)C(=O)N2CCC[C@H]2C(=O)N[C@@H](Cc2ccccc2)C(=O)N[C@H](C(=O)N[C@@H](Cc2ccccc2)C(=O)O)C(C)C)C(C)C)NC(=O)[C@H]2CCCN2C(=O)[C@@H]2CCCN2C(=O)[C@H]([C@@H](C)CC)NC(=O)[C@H](CO)NC1=O` [VIR-348, LEAIPCSIPpCVGFGKPFVF] (H-LEAIPCSIP[dP]CVGFGKPFVF-OH; disulfide 6-11), the half-life was 0.2 h in data set [1], 3.3 h in data set [2], 3 h in data set [3] and 9.3 h in data set [4]. Also, the IC50 came to 326 nM with X4-tropic HIV-1 NL4-3 and 541 nM in the data set on HIV-1 NL4-3 DTV.
As for `CC[C@H](C)[C@H](NC(=O)[C@H](C)NC(=O)[C@H](CCC(=O)O)NC(=O)[C@@H](N)CC(C)C)C(=O)N1CCC[C@H]1C(=O)N[C@H]1CSSC[C@@H](C(=O)N[C@H](C(=O)N[C@@H](Cc2ccccc2)C(=O)N[C@@H](Cc2ccccc2)C(=O)N[C@@H](CC(N)=O)C(=O)N[C@@H](CCCCN)C(=O)N2CCC[C@H]2C(=O)N[C@@H](Cc2ccccc2)C(=O)N[C@H](C(=O)N[C@@H](Cc2ccccc2)C(=O)O)C(C)C)C(C)C)NC(=O)[C@H]2CCCN2C(=O)[C@@H]2CCCN2C(=O)[C@H]([C@@H](C)CC)NC(=O)[C@H](CO)NC1=O` [VIR-352, LEAIPCSIPpCVFFNKPFVF] (H-LEAIPCSIP[dP]CVFFNKPFVF-OH; disulfide 6-11), the half-life in data set [1] was 0.2 h; in data set [2], 3.6 h; in data set [3] it was 6.4 h; in data set [4], 23.7 h. Further, the IC50 in the data set with X4-tropic HIV-1 NL4-3 came out at 340 nM; with HIV-1 NL4-3 DTV it was 624 nM.
For the molecule `CC[C@H](C)[C@H](NC(=O)[C@H](C)NC(=O)[C@H](CCC(=O)O)NC(=O)[C@@H](N)CC(C)C)C(=O)N1CCC[C@H]1C(=O)N[C@H]1CSSC[C@@H](C(=O)N[C@@H](Cc2ccccc2)C(=O)N[C@@H](CC(C)C)C(=O)N[C@@H](Cc2ccccc2)C(=O)N[C@@H](CC(N)=O)C(=O)N[C@@H](CCCCN)C(=O)N2CCC[C@H]2C(=O)N[C@@H](Cc2ccccc2)C(=O)N[C@H](C(=O)N[C@@H](Cc2ccccc2)C(=O)O)C(C)C)NC(=O)[C@H]2CCCN2C(=O)[C@@H]2CCCN2C(=O)[C@H]([C@@H](C)CC)NC(=O)[C@H](CO)NC1=O` [VIR-353, LEAIPCSIPpCFLFNKPFVF] (H-LEAIPCSIP[dP]CFLFNKPFVF-OH; disulfide 6-11), the half-life in data set [1] was 0.2 h; in data set [2] it was 4 h; in data set [3], 5 h; in data set [4], 15.2 h. The results for the IC50 in the data set with X4-tropic HIV-1 NL4-3 and with HIV-1 NL4-3 DTV were 225 nM and 181 nM, respectively.
As to `CC[C@H](C)[C@H](NC(=O)[C@H](CC(=O)O)NC(=O)[C@H](CCC(=O)O)NC(=O)[C@@H](N)CC(C)C)C(=O)N1CCC[C@H]1C(=O)N[C@H]1CSSC[C@@H](C(=O)N[C@H](C(=O)N[C@@H](C)C(=O)N[C@@H](Cc2ccccc2)C(=O)N[C@@H](CC(N)=O)C(=O)N[C@@H](CCCCN)C(=O)N2CCC[C@H]2C(=O)N[C@@H](Cc2ccccc2)C(=O)N[C@H](C(=O)N[C@@H](Cc2ccccc2)C(=O)O)C(C)C)C(C)C)NC(=O)[C@H]2CCCN2C(=O)[C@@H]2CCCN2C(=O)[C@H]([C@@H](C)CC)NC(=O)[C@H](CO)NC1=O` [VIR-357, LEDIPCSIPpCVAFNKPFVF] (H-LEDIPCSIP[dP]CVAFNKPFVF-OH; disulfide 6-11), the half-life in data set [1] is 0.6 h; in data set [2], 23.3 h; in data set [3] it was 13.2 h; in data set [4], 71.5 h. Moreover, the figures for the IC50 in the data set on X4-tropic HIV-1 NL4-3 and with HIV-1 NL4-3 DTV were 497 nM and 704 nM, respectively.
For the molecule `CC[C@H](C)[C@H](NC(=O)[C@H](CCCCN)NC(=O)[C@H](CCC(=O)O)NC(=O)[C@@H](N)CC(C)C)C(=O)N1CCC[C@H]1C(=O)N[C@H]1CSSC[C@@H](C(=O)N[C@H](C(=O)N[C@@H](C)C(=O)N[C@@H](Cc2ccccc2)C(=O)N[C@@H](CC(N)=O)C(=O)N[C@@H](CCCCN)C(=O)N2CCC[C@H]2C(=O)N[C@@H](Cc2ccccc2)C(=O)N[C@H](C(=O)N[C@@H](Cc2ccccc2)C(=O)O)C(C)C)C(C)C)NC(=O)[C@H]2CCCN2C(=O)[C@@H]2CCCN2C(=O)[C@H]([C@@H](C)CC)NC(=O)[C@H](CO)NC1=O` [VIR-358, LEKIPCSIPpCVAFNKPFVF] (H-LEKIPCSIP[dP]CVAFNKPFVF-OH; disulfide 6-11), the half-life is 0.4 h in data set [1], 5.9 h in data set [2], 4.7 h in data set [3] and 16 h in data set [4]. The IC50 with X4-tropic HIV-1 NL4-3 worked out at 706 nM; in the data set with HIV-1 NL4-3 DTV it was 944 nM.
On to `CC[C@H](C)[C@H](NC(=O)[C@H](C)NC(=O)[C@H](CCC(=O)O)NC(=O)[C@@H](N)CC(C)C)C(=O)N1CCC[C@H]1C(=O)N[C@@H](CCSC)C(=O)NCC(=O)N[C@H](C(=O)N1CCC[C@H]1C(=O)N1CCC[C@@H]1C(=O)N[C@@H](CCC(=O)O)C(=O)N[C@H](C(=O)N1Cc2ccccc2C[C@@H]1C(=O)N[C@@H](Cc1ccccc1)C(=O)N[C@@H](CC(N)=O)C(=O)N[C@@H](CCCCN)C(=O)N1CCC[C@H]1C(=O)N[C@@H](Cc1ccccc1)C(=O)N[C@H](C(=O)N[C@@H](Cc1ccccc1)C(=O)O)C(C)C)C(C)C)[C@@H](C)CC` [VIR-448, LEAIPMGIPpEV(D-Tic)FNKPFVF] (H-LEAIPMGIP[dP]EV[dTic]FNKPFVF-OH), for which the half-life in data set [1] was 0.2 h; in data set [2], 3.1 h; in data set [3], 4.5 h; in data set [4], 18 h. The IC50 is 318 nM in the data set on X4-tropic HIV-1 NL4-3 and 325 nM in the data set on HIV-1 NL4-3 DTV.
For `CC[C@H](C)[C@H](NC(=O)[C@H](C)NC(=O)[C@H](CCC(=O)O)NC(=O)[C@@H](N)CC(C)C)C(=O)N1CCC[C@H]1C(=O)N[C@@H](CCSC)C(=O)NCC(=O)N[C@H](C(=O)N1CCC[C@H]1C(=O)N1CCC[C@@H]1C(=O)N[C@@H](CCC(=O)O)C(=O)N[C@H](C(=O)N1Cc2ccccc2C[C@H]1C(=O)N[C@@H](Cc1ccccc1)C(=O)N[C@@H](CC(N)=O)C(=O)N[C@@H](CCCCN)C(=O)N1CCC[C@H]1C(=O)N[C@@H](Cc1ccccc1)C(=O)N[C@H](C(=O)N[C@@H](Cc1ccccc1)C(=O)O)C(C)C)C(C)C)[C@@H](C)CC` [VIR-449, LEAIPMGIPpEV(L-Tic)FNKPFVF] (H-LEAIPMGIP[dP]EV[Tic]FNKPFVF-OH), the half-life in data set [1] was 0.2 h; in data set [2], 4.8 h; in data set [3], 4.2 h; in data set [4], 42.2 h. The IC50 in the data set with X4-tropic HIV-1 NL4-3 is 274 nM; with HIV-1 NL4-3 DTV, 240 nM.
